Results taken from US20140249172A1 (3B Pharmaceuticals, Inc., priority 2012, published 2014).
Several values for one entry are separate records, joined by “and”; a condition that tells them apart may be missing. Identical values can stand only once. Counter-ions that a name gives are not always drawn.

How the values were obtained:
[1] = Blood levels of free naltrexone and free 6-beta-naltrexol following intranasal administration; type: in vivo, human; conditions: for Naltrexone-free blood level / Blood Level 6-beta-Naltrexol-free: individual patients 1-8
[2] = cited from earlier work
[3] = oral, 0.4 mg or 1.0 mg; 90 patients; cited from earlier work
[4] = oral 0.002 mg/day with methadone; one patient; cited from earlier work
[5] = cited from earlier work; remark: listed apart in the source
[6] = 4.5 mg/day for 12 weeks; cited from earlier work
[7] = in vivo, po; cited from earlier work
[8] = 0.5 mg/day oral daily for 4 weeks; 42 IBS patients; cited from earlier work
[9] = Stability of Naltrexone HCl aqueous solution: potency/purity by USP <621> HPLC

Structure (SMILES): O=C1CC[C@@]2(O)[C@H]3Cc4ccc(O)c5c4[C@@]2(CCN3CC2CC2)[C@H]1O5 [Naltrexone, naltrexone]
- concentration at 15 min ([1]; both sexes, human, in vivo, 2 mg, average of 8 subjects, 15 min after intranasal administration, read-out: Naltrexone-free blood level, Avg.): 3.52 ng/mL
- concentration at 30 min ([1]; both sexes, human, in vivo, 2 mg, average of 8 subjects, 30 min, read-out: Naltrexone-free blood level, Avg.): 3.66 ng/mL
- concentration at 60 min ([1]; both sexes, human, in vivo, 2 mg, average of 8 subjects, 60 min, read-out: Naltrexone-free blood level, Avg.): 3.24 ng/mL
- concentration at 120 min ([1]; both sexes, human, in vivo, 2 mg, average of 8 subjects, 120 min, read-out: Naltrexone-free blood level, Avg.): 1.94 ng/mL
- Naltrexone-free blood level ([1]; 15 min after intranasal 1 mL of Example 1 composition (2 mg/mL)): 5.2 ng/mL and 1.4 ng/mL and 4.7 ng/mL and 4.6 ng/mL (2×) and 1.6 ng/mL and 2.1 ng/mL and 4 ng/mL
- Naltrexone-free blood level ([1]; 30 min after intranasal 1 mL of Example 1 composition): 5.1 ng/mL and 1.7 ng/mL and 4.7 ng/mL and 3.8 ng/mL and 2.3 ng/mL and 5.5 ng/mL and 2.8 ng/mL and 3.4 ng/mL
- Naltrexone-free blood level ([1]; 60 min after intranasal 1 mL of Example 1 composition): 4.6 ng/mL and 1.8 ng/mL (2×) and 4.5 ng/mL (2×) and 3.2 ng/mL and 2.6 ng/mL and 2.9 ng/mL
- Naltrexone-free blood level ([1]; 120 min after intranasal 1 mL of Example 1 composition): 2.8 ng/mL and 1.1 ng/mL and 2.9 ng/mL and 2.1 ng/mL (2×) and 1.3 ng/mL and 1.4 ng/mL and 1.8 ng/mL
- oral bioavailability ([2]; oral administration, significant first pass metabolism): up to 40%
- time to peak plasma concentration ([2]; single oral dose): 1 to 2 h
- analgesic effect compared with placebo [3]: significant analgesic effects
- pain relief [4]: improved pain relief
- solubility in water (in words) ([5]; in the form of a salt): freely soluble
- CDAI scores, quality of life indicators, remission rates, inflammatory markers in serum [6]: Statistically significant improvements
- reduction of fibromyalgia symptoms over placebo [7]: greater than 30%
- patients with improved global assessment [8]: 76%

Structure (SMILES): O=C1CC[C@@]2(O)[C@H]3Cc4ccc(O)c5c4[C@@]2(CCN3CC2CC2)[C@H]1O5 [Naltrexone HCl, Naltrexone hydrochloride]
- Potency/Purity ([9]; Stability Test A, 2.00 mg/mL in sterile water, room temperature, ambient light, day 5): 99.89%
- Potency/Purity ([9]; Stability Test A, day 14): 104.12%
- Potency/Purity ([9]; Stability Test A, day 31): 95.94%
- Potency/Purity ([9]; Stability Test A, day 62): 107.00%
- Potency/Purity ([9]; Stability Test A, day 90): 107.09%
- Potency/Purity ([9]; Stability Test B, 2.00 mg/mL in sterile water, room temperature, ambient light, day 6): 102.04%
- Potency/Purity ([9]; Stability Test B, day 15): 102.11%
- Potency/Purity ([9]; Stability Test B, day 33): 101.05%
- Potency/Purity ([9]; Stability Test B, day 61): 98.49%
- Potency/Purity ([9]; Stability Test B, day 90): 99.24%
- Potency/Purity ([9]; Stability Test B, day 121): 98.70%
- Potency/Purity ([9]; Stability Test B, day 152): 98.56%
- Potency/Purity ([9]; Stability Test B, day 180): 100.44%
- solubility in water [5]: about 100 mg/mL

Structure (SMILES): Oc1ccc2c3c1O[C@H]1[C@H](O)CC[C@@]4(O)[C@@H](C2)N(CC2CC2)CC[C@]314 [6-beta-Naltrexol, 6-beta-naltrexol]
- Blood Level 6-beta-Naltrexol-free, Avg. ([1]; average of 8 subjects, 15 min): 0.138 ng/mL
- Blood Level 6-beta-Naltrexol-free, Avg. ([1]; average of 8 subjects, 30 min): 0.900 ng/mL
- Blood Level 6-beta-Naltrexol-free, Avg. ([1]; average of 8 subjects, 60 min): 1.588 ng/mL
- Blood Level 6-beta-Naltrexol-free, Avg. ([1]; average of 8 subjects, 120 min): 2.438 ng/mL
- Blood Level 6-beta-Naltrexol-free ([1]; 15 min after intranasal 1 mL of Example 1 composition): 0 ng/mL (7×) and 1.1 ng/mL
- Blood Level 6-beta-Naltrexol-free ([1]; 30 min): 0 ng/mL (3×) and 1 ng/mL (2×) and 1.5 ng/mL and 1.9 ng/mL and 1.8 ng/mL
- Blood Level 6-beta-Naltrexol-free ([1]; 60 min): 1.1 ng/mL and 1.9 ng/mL and 0 ng/mL (2×) and 1.2 ng/mL and 1.6 ng/mL and 2.9 ng/mL and 4 ng/mL
- Blood Level 6-beta-Naltrexol-free ([1]; 120 min): 2.1 ng/mL (2×) and 2.7 ng/mL and 2 ng/mL and 1.8 ng/mL and 1 ng/mL and 3.5 ng/mL and 4.3 ng/mL
